Test system: patients with negative symptoms of schizophrenia
Assay: Integrated analysis of Studies #1 and #2 (pooled ITT): PANSS-derived scores (NSFS, total, positive and negative subscales), DB, OL and whole study
Type: in vivo, human
Set-up: key to NSFS Score change from Baseline, Median: change from Baseline in PANSS NSFS points; higher score = more severe
Conditions: pooled ITT; for NSFS Score change from Baseline, Median / PANSS Negative Subscale Score change from Baseline, Mean (SD) / PANSS Negative Subscale Score change from Baseline, Median / PANSS Total Score change from Baseline, Mean (SD) / PANSS Total Score change from Baseline, Median / PANSS Positive Subscale Score change from Baseline, Mean (SD) / PANSS Positive Subscale Score change from Baseline, Median / NSFS Score change from Baseline, Mean (SD): Roluperidone Total; for NSFS Score change from Baseline, Median / PANSS Negative Subscale Score change from Baseline, Mean (SD) / PANSS Negative Subscale Score change from Baseline, Median / PANSS Total Score change from Baseline, Mean (SD) / PANSS Total Score change from Baseline, Median / NSFS Score change from Baseline, Mean (SD): DB; for NSFS Change from Active BL to Week 24, Mean (SD) / NSFS Change from Active BL to Week 24, Median / NSFS Change from Active BL to Week 52, Mean (SD) / NSFS Change from Active BL to Week 52, Median / NSFS Change from Active BL to Week 54, Mean (SD) / NSFS Change from Active BL to Week 54, Median / NSFS Change from Open-label BL to Week 24, Mean (SD) / NSFS Change from Open-label BL to Week 24, Median / NSFS Change from Open-label BL to Week 52, Mean (SD) / NSFS Change from Open-label BL to Week 52, Median / NSFS Change from Open-label BL to Week 54, Mean (SD) / NSFS Change from Open-label BL to Week 54, Median / NSFS Change from Study BL to Week 24, Mean (SD) / NSFS Change from Study BL to Week 24, Median / NSFS Change from Study BL to Week 52, Mean (SD) / NSFS Change from Study BL to Week 52, Median / NSFS Change from Study BL to Week 54, Mean (SD) / NSFS Change from Study BL to Week 54, Median: Roluperidone at Any Time
Experimental: The primary integrated analysis of the efficacy of Roluperidone compared with placebo for the treatment of negative symptoms of schizophrenia is based on the change from Baseline in the PANSS Marder's negative symptoms factor score (in this document referred to as NSFS) to Week 12. Efficacy is also supported by the analysis of change from Baseline in the PSP Total score and the CGI-S to Week 12.
The PANSS was assessed at the time points described in Table 4.
The PANSS-derived endpoints used in these studies and the integrated analyses are described in Table 5A and a summary of the individual PANSS items used by physicians and clinicians to measure the severity of the symptoms in a schizophrenia patient is provided in Table 5B. The scale is divided into three parts, a positive scale, which provides a “PANSS positive subscore”, a negative scale, which provides a “PANSS negative subscore”, and general psychopathology scale. The sum of these three parts provides a PANSS total score, which ranges from 30 to 210 (where higher scores indicate more severe symptoms). (See Kay, S. R., et al. “The positive and negative syndrome scale (PANSS) for schizophrenia,” Schizophr Bulletin, 13(2), 261-276 (1987) and Gopal, S., et al. “Improvement of Negative Symptoms in Schizophrenia with Paliperidone Palmitate 1-Month and 3-Month Long-Acting Injectables: Results from a Phase 3 Non-Inferiority Study” Neuropsychiatric Disease and Treatment, 681-690, DOI: 10.2147/NDT.5226296, both of which are incorporated by reference.)
The Efficacy data from Study Nos. 1 and 2 were pooled. The majority of patients in the pooled ITT population completed the DB period (502 patients overall, 66.3%), with similar rates in each treatment group (placebo: 69.8%, 32 mg Roluperidone: 65.3%, and 64 mg Roluperidone: 63.8%) (Table 12). The majority (62.7%) of those who completed the DB period entered the OL period. The most common reason for discontinuation during the DB period among patients overall was withdrawal of consent (15.6%), followed by adverse events (7.3%) and lack of efficacy (5.4%) (Table 12). […] Approximately twice as many patients in the Roluperidone groups (32 mg: 8.5%; 64 mg: 9.1%) discontinued due to adverse events compared with patients in the placebo group (4.3%). More patients in the placebo group discontinued due to lack of efficacy (6.7%) than in the Roluperidone groups (32 mg: 4.4%; 64 mg: 5.1%). The low number of patients who discontinued due to lack of efficacy or withdrawal of consent probably reflects a low level of worsening of positive symptoms.
The integrated analysis supporting the efficacy of Roluperidone as a treatment for the negative symptoms of schizophrenia in adults is presented below.

1H-Isoindol-1-one,2-[ [1-[2-(4-fluorophenyl)-2-oxoethyl]-4-piperidinyl]methyl]-2,3-dihydro-, hydrochloride, hydrate (1:1:2) [Roluperidone]
NSFS Score change from Baseline, Median (Week 4): −2.0 | PANSS Negative Subscale Score change from Baseline, Mean (SD) (Week 4): −2.5 (2.75) | PANSS Negative Subscale Score change from Baseline, Median (Week 4): −2.0 | PANSS Total Score change from Baseline, Mean (SD) (Week 4): −4.8 (7.13) | PANSS Total Score change from Baseline, Median (Week 4): −5.0 | PANSS Positive Subscale Score change from Baseline, Mean (SD) (Week 4): −0.4 (2.49) | PANSS Positive Subscale Score change from Baseline, Median (Week 4): 0.0 | NSFS Score change from Baseline, Mean (SD) (Week 8): −3.4 (3.25) | NSFS Score change from Baseline, Median (Week 8): −3.0 | PANSS Negative Subscale Score change from Baseline, Mean (SD) (Week 8): −3.6 (3.38) | PANSS Negative Subscale Score change from Baseline, Median (Week 8): −3.0 | PANSS Total Score change from Baseline, Mean (SD) (Week 8): −6.5 (8.35) | PANSS Total Score change from Baseline, Median (Week 8): −6.0 | PANSS Positive Subscale Score change from Baseline, Mean (SD) (Week 8): −0.5 (2.55) | PANSS Positive Subscale Score change from Baseline, Median (Week 8): 0.0 | NSFS Score change from Baseline, Mean (SD) (Week 12): −3.8 (3.39) | NSFS Score change from Baseline, Median (Week 12): −4.0 | PANSS Negative Subscale Score change from Baseline, Mean (SD) (Week 12): −4.0 (3.59) | PANSS Negative Subscale Score change from Baseline, Median (Week 12): −3.0 | PANSS Total Score change from Baseline, Mean (SD) (Week 12): −7.3 (8.66) | PANSS Total Score change from Baseline, Median (Week 12): −7.0 | PANSS Positive Subscale Score change from Baseline, Mean (SD) (Week 12): −0.6 (2.64) | PANSS Positive Subscale Score change from Baseline, Median (Week 12): 0.0 | NSFS Change from Active BL to Week 24, Mean (SD) (32 mg): −3.7 (3.45) | NSFS Change from Active BL to Week 24, Median (32 mg): −4.0 | NSFS Change from Active BL to Week 52, Mean (SD) (32 mg): −5.7 (3.95) | NSFS Change from Active BL to Week 52, Median (32 mg): −5.0 | NSFS Change from Active BL to Week 54, Mean (SD) (32 mg): −5.7 (3.55) | NSFS Change from Active BL to Week 54, Median (32 mg): −6.0 | NSFS Change from Open-label BL to Week 24, Mean (SD) (32 mg): −1.4 (2.51) | NSFS Change from Open-label BL to Week 24, Median (32 mg): −1.0 | NSFS Change from Open-label BL to Week 52, Mean (SD) (32 mg): −3.3 (3.23) | NSFS Change from Open-label BL to Week 52, Median (32 mg): −3.0 | NSFS Change from Open-label BL to Week 54, Mean (SD) (32 mg): −3.3 (3.45) | NSFS Change from Open-label BL to Week 54, Median (32 mg): −3.0 | NSFS Change from Study BL to Week 24, Mean (SD) (32 mg): −4.9 (3.61) | NSFS Change from Study BL to Week 24, Median (32 mg): −5.0 | NSFS Change from Study BL to Week 52, Mean (SD) (32 mg): −6.9 (3.95) | NSFS Change from Study BL to Week 52, Median (32 mg): −6.0 | NSFS Change from Study BL to Week 54, Mean (SD) (32 mg): −6.8 (3.80) | NSFS Change from Study BL to Week 54, Median (32 mg): −6.0 | NSFS Change from Active BL to Week 24, Mean (SD) (64 mg): −4.2 (3.92) | NSFS Change from Active BL to Week 24, Median (64 mg): −4.0 | NSFS Change from Active BL to Week 52, Mean (SD) (64 mg): −6.7 (4.23) | NSFS Change from Active BL to Week 52, Median (64 mg): −7.0 | NSFS Change from Active BL to Week 54, Mean (SD) (64 mg): −6.6 (4.40) | NSFS Change from Active BL to Week 54, Median (64 mg): −7.0 | NSFS Change from Open-label BL to Week 24, Mean (SD) (64 mg): −1.6 (3.02) | NSFS Change from Open-label BL to Week 24, Median (64 mg): −1.0 | NSFS Change from Open-label BL to Week 52, Mean (SD) (64 mg): −4.3 (3.77) | NSFS Change from Open-label BL to Week 52, Median (64 mg): −4.0 | NSFS Change from Open-label BL to Week 54, Mean (SD) (64 mg): −4.0 (3.88) | NSFS Change from Open-label BL to Week 54, Median (64 mg): −4.0 | NSFS Change from Study BL to Week 24, Mean (SD) (64 mg): −5.0 (3.49) | NSFS Change from Study BL to Week 24, Median (64 mg): −5.0 | NSFS Change from Study BL to Week 52, Mean (SD) (64 mg): −7.5 (3.61) | NSFS Change from Study BL to Week 52, Median (64 mg): −7.0 | NSFS Change from Study BL to Week 54, Mean (SD) (64 mg): −7.4 (3.81) | NSFS Change from Study BL to Week 54, Median (64 mg): −7.0 | NSFS Change from Active BL to Week 24, Mean (SD) (Total): −5.1 (3.52) | NSFS Change from Active BL to Week 24, Median (Total): −5.0 | NSFS Change from Active BL to Week 52, Mean (SD) (Total): −7.0 (3.84) | NSFS Change from Active BL to Week 52, Median (Total): −6.0 | NSFS Change from Active BL to Week 54, Mean (SD) (Total): −7.0 (3.56) | NSFS Change from Active BL to Week 54, Median (Total): −7.0 | NSFS Change from Open-label BL to Week 24, Mean (SD) (Total): −1.3 (2.56) | NSFS Change from Open-label BL to Week 24, Median (Total): −1.0 | NSFS Change from Open-label BL to Week 52, Mean (SD) (Total): −3.2 (2.99) | NSFS Change from Open-label BL to Week 52, Median (Total): −3.0 | NSFS Change from Open-label BL to Week 54, Mean (SD) (Total): −3.2 (3.29) | NSFS Change from Open-label BL to Week 54, Median (Total): −3.0 | NSFS Change from Study BL to Week 24, Mean (SD) (Total): −5.1 (3.52) | NSFS Change from Study BL to Week 24, Median (Total): −5.0 | NSFS Change from Study BL to Week 52, Mean (SD) (Total): −7.0 (3.84) | NSFS Change from Study BL to Week 52, Median (Total): −6.0 | NSFS Change from Study BL to Week 54, Mean (SD) (Total): −7.0 (3.56) | NSFS Change from Study BL to Week 54, Median (Total): −7.0

From patent US20230255953A1, “USE OF ROLUPERIDONE IN PREVENTING RELAPSE IN SCHIZOPHRENIA PATIENTS” (Minerva Neurosciences, Inc., priority 2022, published 2023)
